This is an account of results in patent publication US20230339878A1, “SLC26A3 INHIBITORS AND USE THEREOF” (THE REGENTS OF THE UNIVERSITY OF CALIFORNIA, priority 2018, published 2023).

One test deals with T1, TMEM16A (Homo sapiens, UniProt Q5XXA6).
T1 sequence (Q5XXA6 1-986): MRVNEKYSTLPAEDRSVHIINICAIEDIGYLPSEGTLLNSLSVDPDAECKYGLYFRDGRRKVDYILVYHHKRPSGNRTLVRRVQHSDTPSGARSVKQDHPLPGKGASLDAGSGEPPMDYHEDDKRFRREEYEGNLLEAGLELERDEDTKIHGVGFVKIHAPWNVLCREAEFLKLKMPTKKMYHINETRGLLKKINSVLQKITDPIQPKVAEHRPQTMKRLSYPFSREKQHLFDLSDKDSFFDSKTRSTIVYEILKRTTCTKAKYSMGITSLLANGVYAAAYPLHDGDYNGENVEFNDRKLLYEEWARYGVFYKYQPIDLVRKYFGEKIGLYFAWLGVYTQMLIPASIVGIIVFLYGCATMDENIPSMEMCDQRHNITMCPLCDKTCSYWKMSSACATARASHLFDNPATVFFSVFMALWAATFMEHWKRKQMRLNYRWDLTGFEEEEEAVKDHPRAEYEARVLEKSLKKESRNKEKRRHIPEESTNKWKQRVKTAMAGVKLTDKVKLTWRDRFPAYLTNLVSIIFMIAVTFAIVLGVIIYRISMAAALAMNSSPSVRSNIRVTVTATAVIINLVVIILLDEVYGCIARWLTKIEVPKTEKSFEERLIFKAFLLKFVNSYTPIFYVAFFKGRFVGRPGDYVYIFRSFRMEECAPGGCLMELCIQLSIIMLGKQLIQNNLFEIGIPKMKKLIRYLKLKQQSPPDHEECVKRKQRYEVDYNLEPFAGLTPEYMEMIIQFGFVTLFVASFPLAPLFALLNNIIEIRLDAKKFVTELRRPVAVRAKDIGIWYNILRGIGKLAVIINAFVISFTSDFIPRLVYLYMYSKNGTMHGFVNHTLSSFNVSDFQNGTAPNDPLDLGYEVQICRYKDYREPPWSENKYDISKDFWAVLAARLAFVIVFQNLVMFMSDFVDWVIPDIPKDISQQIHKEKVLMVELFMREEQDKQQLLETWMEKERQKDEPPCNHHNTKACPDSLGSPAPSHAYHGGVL
The experiment in a line: Selectivity: TMEM16A (ATP-stimulated) YFP assay. Format: cell-based. As to conditions: 10 µM. The source says: (§1) To investigate Compound A1 selectivity, transport assays were done on a panel of SLC26-family homologs, and other relevant epithelial ion transporters and channels. […] In separate studies, to investigate possible action of Compound A1 on multiple ion transporters and channels in a human epithelium, human bronchial epithelial (HBE) cells were studied by short-circuit current, with successive additions of amiloride (to block the epithelial sodium channel ENaC), forskolin, CFTRinh-172 (to block CFTR), and ATP (to activate the Ca^2+-activated chloride channel, CaCC) (FIG. 5C).
(§2) YFP-based assays of CFTR, pendrin and TMEM16A were as described. HEK cells transfected to express YFP and SLC26A3, slc26a6 or slc26a9 were functionally assayed using a Cl^-/I^- exchange protocol. Assays of Cl^-/HCO3^- exchange were done using BCECF as an intracellular pH indicator as described for pendrin. […]
(§3) HEK293 cells transfected with pIRES-YFP-slc26a9 were plated in 96-well black-walled, clear-bottom tissue culture plates (Corning Life Sciences, Tewksbury, MA) after coating with FNC Coating Mix (AthenaES, Baltimore, MD). […] Assays of slc26a9-mediated anion exchange were done by initially recording YFP fluorescence prior to addition of 100 µL of NaI-substituted PBS to test wells, with the initial rate of Cl^-/I^- exchange deduced from fluorescence intensity by single exponential regression. […]

For the next test, the target named is T2, CFTR (Homo sapiens, UniProt P13569).
T2 construct: expressed in transfected cells; host or cells: FRT cells expressing YFP and CFTR
In words: Selectivity: CFTR (forskolin stimulated) YFP assay. Format: cell-based. To be noted: 10 µM.
Excerpt: as §1, §2, §3

Structures are written as SMILES. “Also recorded” adds a separate entry of the source.

T2 sequence (P13569 whole entry, species assumed): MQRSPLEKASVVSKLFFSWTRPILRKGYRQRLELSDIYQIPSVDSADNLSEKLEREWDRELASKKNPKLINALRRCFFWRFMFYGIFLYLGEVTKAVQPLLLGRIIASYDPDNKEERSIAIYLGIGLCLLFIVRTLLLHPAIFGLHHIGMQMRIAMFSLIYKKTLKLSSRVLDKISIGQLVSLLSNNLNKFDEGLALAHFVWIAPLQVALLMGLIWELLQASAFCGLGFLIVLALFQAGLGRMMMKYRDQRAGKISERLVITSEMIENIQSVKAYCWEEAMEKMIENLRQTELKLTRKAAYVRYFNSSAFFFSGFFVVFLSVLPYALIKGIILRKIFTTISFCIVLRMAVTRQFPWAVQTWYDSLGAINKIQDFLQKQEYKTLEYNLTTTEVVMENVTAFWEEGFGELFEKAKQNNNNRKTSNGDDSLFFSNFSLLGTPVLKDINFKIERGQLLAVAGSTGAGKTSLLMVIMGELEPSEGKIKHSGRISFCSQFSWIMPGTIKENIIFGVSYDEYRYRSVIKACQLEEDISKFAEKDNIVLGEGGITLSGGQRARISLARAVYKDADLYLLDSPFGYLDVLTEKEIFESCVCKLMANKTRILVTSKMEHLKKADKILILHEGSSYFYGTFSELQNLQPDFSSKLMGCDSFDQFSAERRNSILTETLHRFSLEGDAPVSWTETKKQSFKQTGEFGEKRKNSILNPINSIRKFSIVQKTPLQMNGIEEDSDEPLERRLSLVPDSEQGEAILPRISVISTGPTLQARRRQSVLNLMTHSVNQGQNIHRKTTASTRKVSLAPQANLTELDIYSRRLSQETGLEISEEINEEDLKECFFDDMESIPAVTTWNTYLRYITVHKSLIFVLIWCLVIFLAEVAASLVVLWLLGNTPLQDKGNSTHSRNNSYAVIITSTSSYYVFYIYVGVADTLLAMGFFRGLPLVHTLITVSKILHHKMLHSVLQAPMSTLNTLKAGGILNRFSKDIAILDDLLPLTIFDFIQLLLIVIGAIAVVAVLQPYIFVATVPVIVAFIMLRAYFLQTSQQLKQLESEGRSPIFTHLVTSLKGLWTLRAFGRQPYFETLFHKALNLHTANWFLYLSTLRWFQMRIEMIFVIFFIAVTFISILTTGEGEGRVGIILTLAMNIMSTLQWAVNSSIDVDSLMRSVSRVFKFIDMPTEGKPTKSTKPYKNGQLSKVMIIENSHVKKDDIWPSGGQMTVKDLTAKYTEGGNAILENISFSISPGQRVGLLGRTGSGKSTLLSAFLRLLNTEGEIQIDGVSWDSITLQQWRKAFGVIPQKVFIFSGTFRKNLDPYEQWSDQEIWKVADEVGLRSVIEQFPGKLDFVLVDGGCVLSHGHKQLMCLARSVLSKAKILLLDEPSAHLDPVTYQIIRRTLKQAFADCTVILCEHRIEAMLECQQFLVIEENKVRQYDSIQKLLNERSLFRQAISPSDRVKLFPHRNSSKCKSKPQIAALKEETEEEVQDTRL

As for `Cc1c(CC(=O)O)c(=O)oc2c(C)c(OCc3cccc(Br)c3)ccc12` [Compound A1], the “effect on activity of TMEM16A” value on TMEM16A is reported as “did not alter the activity; also recorded: differences not significant”. Also, the “effect on activity of CFTR” value at CFTR is on record as “did not alter the activity; also recorded: differences not significant”.
